Measured values as given in patent US20060234919A1, “Use” (priority 2001, published 2006).

Columns and labels:
[1] = test system: carrageenan induced edema; test: carrageenan induced edema of the rat hindpaw (plethysmometer); format: in vivo; details: for carrageenan induced edema, percentage increase in hindpaw volume: 10 mg/kg i.m.
Experimental: Male Sprague-Dawley rats (260-300 g for s.c. injected and 340-380 g for i.c.v. injected) were used (B&K Universal A B, Sollentuna, Sweden). The animals arrived at least one week before experiments and were housed three-four per cage (except animals provided with i.c.v. cannulas that were housed individually) with free access to food (R36, Ewos, Södertälje, Sweden) and water. The light schedule was a 12/12 h light/dark cycle, and ambient temperature was 20±2° C.
Oxytocin and the oxytocin antagonist (1-deamino-2-D-Tyr-(OEt)-4-Thr-8-Orn-oxytocin) (Ferring, Malmö, Sweden) were dissolved in physiological saline and injected in a volume of 1 ml/kg s.c. in the dorsal neck. Dexamethasone (Decadron®, Merck, Sharp & Dome, USA) was administered intramuscularly (i.m.). Oxytocin given i.c.v. was dissolved in a volume of 5 μl physiological saline and slowly injected over a period of 1 minute through the i.c.v. guide cannula via a 25 G stain-less-steel injection needle connected to a 10 μl Hamilton syringe via a polyethylene tube. Controls received saline in the same amounts.
The model of inflammation used, the carrageenan induced edema, is a commonly used model for studies of inflammation and for testing novel anti-inflammatory drugs (Winter C A, Risley E A, Nuss G W. Carrageenan-induced edema in hind paw of the rat as an assay for anti-inflammatory drugs. Proc Soc Exp Biol Med 1962; 111:544-7). To produce acute inflammation, carrageenan, 2 mg in 0.1 ml saline, was injected s.c. into the plantar region of the rat right hindpaw.
The rats were treated s.c. with oxytocin (1.0, 10, 100 or 1000 μg/kg (n=8 in each group) or saline (n=8+8) immediately before the carrageenan injection. The edema of the right hindpaw was measured (volume in ml) using a plethysmometer (Ugo Basile, type 7150, Florence, Italy) before treatment, half an hour after, one hour after, and then every hour up to 6 or 10 hours after treatment.
The results are presented as means±SD. Statistical analysis was performed by means of a 1-way ANOVA, followed by Fisher's test for post-hoc comparisons. In the analysis of myeloperoxidase accumulation, a Student's t-test was used. P-values of 0.05 or less were regarded as statistically significant.
The rats were treated s.c. with oxytocin (1000 μg/kg) and the oxytocin antagonist (1000 μg/kg) (the antagonist was given 30 minutes before oxytocin) (n=8), the oxytocin antagonist alone (1000 μg/kg) (n=8) or saline (n=8) immediately before the carrageenan injection. Measurements as in Example 1.
The rats were treated i.c.v. with oxytocin (1.0 μg/kg) (n=6) or saline (n=7) immediately before the carrageenan injection. Measurements as in Example 1. The animals were anaesthetised with sodiumpentobarbital (50 mg/kg) (Apoteksbolaget, Sweden) injected intraperitoneally (i.p.). The scull was uncovered, a hole was drilled in the right parietal bone and a guide cannula (21 G) was fixed stereotactically to the scull by means of acrylic dental cement. The coordinates were 1.00 mm posterior and 1.30 mm lateral to the bregma. […] The injection needles (25 G) reached 3.80 mm below the dura mater, with the tip of the needle in the right lateral ventricle. The animals were allowed one week of recovery after the operation. At the end of the experiment, the placement of the guide cannula was checked by injection of 2 μl of toluidine blue.
The rats were treated i.m. with dexamethasone (10 mg/kg) (n=6) or saline (n=6) immediately before the carrageenan injection. The edema of the right hindpaw was measured using the plethysmometer before treatment, and at 2, 4 and 6 hours after treatment.

[2] = test system: ischaemic musculocutaneous skin flaps; details: antagonist 1 mg/kg s.c.; previously shown by the inventors; cited from earlier work

| Compound | abolition of the oxytocin (1000 μg/kg s.c.) induced effect on carrageenan induced edema ([1]; antagonist 1000 μg/kg s.c. 30 minutes before oxytocin) | effect on carrageenan induced edema ([1]; antagonist 1000 μg/kg s.c. administered alone) | antagonism of the oxytocin (1 mg/kg s.c.) effect on skin flap survival [2] | carrageenan induced edema, percentage increase in hindpaw volume ([1]; 2 hours, saline 48±10%, p<0.05) [%] | carrageenan induced edema, percentage increase in hindpaw volume ([1]; 4 hours, saline 78±12%, p<0.05) [%] | carrageenan induced edema, percentage increase in hindpaw volume ([1]; 6 hours, saline 105±11%, p<0.01) [%] |
| --- | --- | --- | --- | --- | --- | --- |
| 1-deamino-2-D-Tyr-(OEt)-4-Thr-8-Orn-oxytocin [oxytocin antagonist] | did not abolish | did not induce any effect | abolished |  |  |  |
| C[C@@H]1C[C@H]2[C@@H]3CCC4=CC(=O)C=C[C@]4(C)[C@@]3(F)[C@@H](O)C[C@]2(C)[C@@]1(O)C(=O)CO [Dexamethasone] |  |  |  | 35±9.3 | 54±14 | 71±15 |
